Holding throughout (format): in vivo
For data set [1], the system named is Cyperus serotinus. In words: Test Example 1: herbicidal effects, paddy-field pot test. As to conditions: wettable powder applied 3 days after transplanting, judged after 25 days. In a few lines:
(§1)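 Scores are growth inhibition ratings from 0 (0–10%) to 5 (91–100%), judged 25 days after a water-diluted wettable powder was applied to flooded pots. Treatment followed transplanting of 2.2-leaf rice by 3 days; weeds were seeded at the soil surface or planted as germinated tubers.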

Data set [2] relates to Scirpus joncoides. Described as above. The note with it: wettable powder applied 3 days after transplanting, judged after 25 days. In short, it runs like this: as §1
Data set [3] relates to barnyardgrass (Echinochloa oryzicola Vasing.). The description is as above. The note with it: wettable powder applied 3 days after transplanting, judged after 25 days. In short, it runs like this: as §1
The subject of data set [4] is annual broad-leaved weeds (Lindernia spp., Rotala indica). The data set is described as above. As to conditions: wettable powder applied 3 days after transplanting, judged after 25 days. In a few lines: as §1
Data set [5] has as its system transplanted paddy-field rice. Put plainly: Test Example 1: crop injury against transplanted paddy-field rice. As to conditions: wettable powder applied 3 days after transplanting, judged after 25 days. In a few lines:
as §1

The test system of a further data set is redroot pigweed. Put plainly: Test Example 3: herbicidal effects (foliar treatment). The note with it: foliar treatment at 10 to 15 cm, judged after 14 days. How it is done: (§2) Judgment Standard • 0: Growth inhibition rate; 0 to 10% • 1: Growth inhibition rate; 11 to 30% • 2: Growth inhibition rate; 31 to 50% • 3: Growth inhibition rate; 51 to 70% • 4: Growth inhibition rate; 71 to 90% • 5: Growth inhibition rate; 91 to 100%.
(§3) Upland soil was filled in 150 cm^2 pot, and seeds of velvetleaf, tall morningglory, indian mustard, black nightshade redroot pigweed were sowed, and grown in a greenhouse. After the weeds were grown with 10 to 15 cm or so, a predetermined chemical dosage of the wettable powder prepared in accordance with Preparation example 1 was diluted with water containing 0.05% of GRAMIN-S and applied as a foliar treatment. After 14 days from the treatment, herbicidal effects were judged in accordance with the judgment standard of Test example 1, and the results were shown in Table 4. Incidentally, “-” in the table means no test was carried out.

In the next data set the test system is indian mustard. The data set is described as above. As to conditions: foliar treatment at 10 to 15 cm, judged after 14 days. On the procedure:
as §2, §3

The next data set has as its system tall morningglory. Described as above. The note with it: foliar treatment at 10 to 15 cm, judged after 14 days. How it is done:
as §2, §3

The subject of a further data set is barnyardgrass. In words: Test Example 2: herbicidal effects (soil treatment). The note with it: soil treatment the day after seeding, judged after 21 days.
Text: as §2
(§4) Upland soil was filled in 150 cm^2 pot, and seeds of barnyardgrass and indian mustard (Brassica juncea (L.) Czern. et Coss) were sowed, and grown in a greenhouse. At the next day of seeding, a predetermined chemical dosage of the wettable powder prepared in accordance with Preparation example 1 was diluted in water and applied to soil surface. After 21 days from the treatment, herbicidal effects were judged in accordance with the judgment standard of Test example 1, and the results were shown in Table 3.

The test system of data set [6] is indian mustard (Brassica juncea (L.) Czern. et Coss). The description is as above. The note with it: soil treatment the day after seeding, judged after 21 days.
Text: as §2, §4

The test system of the next data set is Sagittaria pygmaea. In words: Test Example 4: herbicidal effects of mixed wettable powder, paddy-field pot test. As to conditions: no second compound, after 25 days. In a few lines:
(§5)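 Flooded greenhouse pots of paddy soil were sown in the top 1 cm with dormancy-broken weed seeds and planted with tubers, and 2.2-leaf rice was transplanted. Three days later, water-diluted wettable powder was applied at set dosages, and growth inhibition was rated 25 days after that on a 0 (0–15%) to 5 (96–100%) scale.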

Data set [7] concerns Cyperus serotinus. Described as above. The note with it: no second compound, after 25 days. In a few lines:
as §5

Data set [8] relates to annual broad-leaved weeds (Lindernia spp. and Rotala indica). The description is as above. As to conditions: no second compound, after 25 days. In short, it runs like this: as §5
In data set [9] the test system is Scirpus joncoides. Described as above. As to conditions: no second compound, after 25 days. In short, it runs like this: as §5
Data set [10] concerns barnyardgrass (Echinochloa oryzicola Vasing.). The data set is described as above. The note with it: no second compound, after 25 days. In a few lines:
as §5

The test system of a further data set is Eleocharis kuroguwai. The description is as above. The note with it: no second compound, after 25 days. In a few lines:
as §5

Data set [11] deals with transplanted paddy-field rice. In words: Test Example 4: crop injury against transplanted paddy-field rice. The note with it: no second compound, after 25 days. In short, it runs like this:
as §5

The subject of the next data set is black nightshade. In words: Test Example 3: herbicidal effects (foliar treatment). The note with it: chemical dosage 2 kg/a; foliar treatment at 10 to 15 cm; judged after 14 days. How it is done:
as §2, §3

The next data set relates to velvetleaf. Described as above. The note with it: chemical dosage 2 kg/a; foliar treatment at 10 to 15 cm; judged after 14 days. On the procedure: as §2, §3

Each structure is given as a SMILES string.

`Oc1cc(Cl)nnc1Oc1c(F)cccc1C1CC1` [Example 236]: the “Herbicidal effects Cyperus serotinus” value in the data set on Cyperus serotinus [1] (chemical dosage 10 g/a) and in the data set on Cyperus serotinus [1] (chemical dosage 20 g/a) was 5 (Growth inhibition rate; 91 to 100%) in each case. In addition, the “Herbicidal effects Scirpus joncoides” value in the data set on Scirpus joncoides [2] (chemical dosage 10 g/a) and in the data set with Scirpus joncoides [2] (chemical dosage 20 g/a) was 5 (Growth inhibition rate; 91 to 100%) in each case. Also, the entries for the “Herbicidal effects Barnyard grass” value in data set [3] (chemical dosage 10 g/a) and in [3] (chemical dosage 20 g/a) were 3 (Growth inhibition rate; 51 to 70%) and 4 (Growth inhibition rate; 71 to 90%), respectively. The “Herbicidal effects Broad leaf” value in data set [4] (chemical dosage 10 g/a) and in data set [4] (chemical dosage 20 g/a) was 5 (Growth inhibition rate; 91 to 100%) each time. The “Crop injury against transplanted rice” value in data set [5] (chemical dosage 10 g/a) and in [5] (chemical dosage 20 g/a) was 0 (Growth inhibition rate; 0 to 10%) in each case. In the data set on redroot pigweed (chemical dosage 0.5 kg/a), the “Herbicidal effects Redroot pigweed” value is reported as 3 (Growth inhibition rate; 51 to 70%). Further, the “Herbicidal effects indian mustard” value was 3 (Growth inhibition rate; 51 to 70%) in the data set on indian mustard (chemical dosage 0.5 kg/a) and 5 (Growth inhibition rate; 91 to 100%) in data set [6] (dosage 5 kg/a). In addition, in the data set on tall morningglory (chemical dosage 0.5 kg/a), the “Herbicidal effects Tall Morningglory” value is listed as 4 (Growth inhibition rate; 71 to 90%). Further, the “Herbicidal effects Barnyard-grass” value with barnyardgrass (dosage 5 kg/a) is 3 (Growth inhibition rate; 51 to 70%).

Consider `Cc1cccc(C2CC2)c1Oc1nnc(Cl)cc1O` [Example 23], for which the “Herbicidal effects Cyperus serotinus” value in the data set on Cyperus serotinus [1] (chemical dosage 10 g/a) is on record as 5 (Growth inhibition rate; 91 to 100%); in the data set with Cyperus serotinus [1] (chemical dosage 20 g/a), 5 (Growth inhibition rate; 91 to 100%); in the data set with Cyperus serotinus [7] (derivative 5 g/a), 5 (Growth inhibition rate; 96 to 100%); in the data set with Cyperus serotinus [7] (derivative 10 g/a), 5 (Growth inhibition rate; 96 to 100%). Moreover, the “Herbicidal effects Scirpus joncoides” value was 5 (Growth inhibition rate; 91 to 100%) with Scirpus joncoides [2] (chemical dosage 10 g/a), 5 (Growth inhibition rate; 91 to 100%) with Scirpus joncoides [2] (chemical dosage 20 g/a), 5 (Growth inhibition rate; 96 to 100%) in the data set with Scirpus joncoides [9] (derivative 5 g/a) and 5 (Growth inhibition rate; 96 to 100%) in the data set with Scirpus joncoides [9] (derivative 10 g/a). In addition, the “Herbicidal effects Barnyard grass” value in data set [3] (chemical dosage 10 g/a) was 3 (Growth inhibition rate; 51 to 70%); in data set [3] (chemical dosage 20 g/a), 4 (Growth inhibition rate; 71 to 90%); in [10] (derivative 5 g/a), 2 (Growth inhibition rate; 36 to 55%); in data set [10] (derivative 10 g/a), 3 (Growth inhibition rate; 56 to 75%). In addition, the “Herbicidal effects Broad leaf” value was 5 (Growth inhibition rate; 91 to 100%) in data set [4] (chemical dosage 10 g/a), 5 (Growth inhibition rate; 91 to 100%) in data set [4] (chemical dosage 20 g/a), 5 (Growth inhibition rate; 96 to 100%) in data set [8] (derivative 5 g/a) and 5 (Growth inhibition rate; 96 to 100%) in data set [8] (derivative 10 g/a). Also, the “Herbicidal effects Sagittaria pygmaea” value with Sagittaria pygmaea (derivative 5 g/a) and in the data set on Sagittaria pygmaea (derivative 10 g/a) was 5 (Growth inhibition rate; 96 to 100%) in each case. The “Herbicidal effects Eleocharis kuroguwai” value with Eleocharis kuroguwai (derivative 5 g/a) is reported as 2 (Growth inhibition rate; 36 to 55%); with Eleocharis kuroguwai (derivative 10 g/a) it was 3 (Growth inhibition rate; 56 to 75%). Besides, the “Crop injury against transplanted rice” value in [5] (chemical dosage 10 g/a) is on record as 0 (Growth inhibition rate; 0 to 10%); in data set [5] (chemical dosage 20 g/a), 2 (Growth inhibition rate; 31 to 50%); in data set [11] (derivative 5 g/a), 0 (Growth-inhibition rate; 0 to 15%); in [11] (derivative 10 g/a), 0 (Growth-inhibition rate; 0 to 15%). Besides, the “Herbicidal effects Redroot pigweed” value in the data set with redroot pigweed (chemical dosage 2 kg/a) is reported as 4 (Growth inhibition rate; 71 to 90%). The “Herbicidal effects indian mustard” value (in the data set with indian mustard (chemical dosage 2 kg/a); in data set [6] (dosage 2 kg/a)) was 5 (Growth inhibition rate; 91 to 100%) in each case. In addition, in the data set on tall morningglory (chemical dosage 2 kg/a), the “Herbicidal effects Tall Morningglory” value is 5 (Growth inhibition rate; 91 to 100%). The “Herbicidal effects Black Night-shade” value in the data set on black nightshade is given as 5 (Growth inhibition rate; 91 to 100%). Besides, the “Herbicidal effects Velvet-leaf” value with velvetleaf is given as 4 (Growth inhibition rate; 71 to 90%). In addition, the “Herbicidal effects Barnyard-grass” value in the data set on barnyardgrass (dosage 2 kg/a) is on record as 4 (Growth inhibition rate; 71 to 90%).

The values are drawn from patent US7964531B2, “3-phenoxy-4-pyridazinol derivatives and herbicidal composition containing the same” (Mitsui Chemicals Agro, Inc., priority 2001, dated 2011).
